Key:
[1] = Antiproliferative activity against mouse BA/F3 cells assessed as cell viability after 72 hrs by CellTiter-Glo or CCK-8 assay; type: cell-based, BaF3
K562 = assay: Antiproliferative activity against human K562 cells assessed as cell viability after 72 hrs by CellTiter-Glo or CCK-8 assay; type: functional; conditions: K562, 72 h
[2] = Antiproliferative activity against human KU812 cells assessed as cell viability after 72 hrs by CellTiter-Glo or CCK-8 assay; type: functional; conditions: KU812, 72 h
[3] = Antiproliferative activity against human U937 cells assessed as cell viability after 72 hrs by CellTiter-Glo or CCK-8 assay; type: functional; conditions: U-937, 72 h
[4] = Antiproliferative activity against human MOLM14 cells assessed as cell viability after 72 hrs by CellTiter-Glo or CCK-8 assay; type: functional; conditions: MOLM-14, 72 h
MV4-11 = assay: Antiproliferative activity against human MV4-11 cells assessed as cell viability after 72 hrs by CellTiter-Glo or CCK-8 assay; type: functional; conditions: MV4-11, 72 h
[5] = Antiproliferative activity against human MEG01 cells assessed as cell viability after 72 hrs by CellTiter-Glo or CCK-8 assay; type: functional; conditions: MEG-01, 72 h
HEL = assay: Antiproliferative activity against human HEL cells assessed as cell viability after 72 hrs by CellTiter-Glo or CCK-8 assay; type: functional
[6] = Antiproliferative activity against […] CHL cells assessed as cell viability after 72 hrs by CellTiter-Glo or CCK-8 assay; type: cell-based, Cricetulus griseus; conditions: chinese hamster
[7] = molecular target: Epithelial discoidin domain-containing receptor 1 (Homo sapiens, UniProt Q08345); conditions: BaF3
Description: Inhibition of TEL-DDR1 (unknown origin) expressed in mouse BA/F3 cells assessed as growth inhibition after 72 hrs by CellTiter-Glo or CCK-8 assay

[8] = molecular target: T1, Discoidin domain-containing receptor 2 (Homo sapiens) (UniProt Q16832); conditions: BaF3
T1 sequence (whole entry): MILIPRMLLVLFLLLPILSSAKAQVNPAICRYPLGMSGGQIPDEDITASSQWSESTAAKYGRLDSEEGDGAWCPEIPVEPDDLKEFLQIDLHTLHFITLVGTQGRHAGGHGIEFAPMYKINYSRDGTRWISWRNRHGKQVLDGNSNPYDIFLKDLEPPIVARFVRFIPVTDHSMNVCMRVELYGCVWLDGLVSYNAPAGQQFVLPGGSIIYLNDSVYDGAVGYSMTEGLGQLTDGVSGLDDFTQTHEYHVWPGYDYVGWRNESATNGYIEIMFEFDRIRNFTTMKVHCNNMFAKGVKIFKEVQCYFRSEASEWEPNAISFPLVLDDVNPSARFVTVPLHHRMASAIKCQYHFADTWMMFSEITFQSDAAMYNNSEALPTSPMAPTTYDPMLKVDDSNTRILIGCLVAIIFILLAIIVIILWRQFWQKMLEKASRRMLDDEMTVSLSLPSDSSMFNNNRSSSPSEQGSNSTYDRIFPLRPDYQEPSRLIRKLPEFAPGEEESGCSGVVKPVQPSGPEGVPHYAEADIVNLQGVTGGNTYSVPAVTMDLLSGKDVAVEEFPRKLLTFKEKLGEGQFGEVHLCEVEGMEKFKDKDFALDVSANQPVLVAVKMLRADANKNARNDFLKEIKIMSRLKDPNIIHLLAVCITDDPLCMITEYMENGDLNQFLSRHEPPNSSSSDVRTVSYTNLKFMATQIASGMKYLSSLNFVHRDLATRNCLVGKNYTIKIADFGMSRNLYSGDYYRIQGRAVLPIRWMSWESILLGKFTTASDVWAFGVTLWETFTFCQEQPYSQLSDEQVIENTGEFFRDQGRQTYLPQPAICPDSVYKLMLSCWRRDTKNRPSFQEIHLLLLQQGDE
Description: Inhibition of TEL-DDR2 (unknown origin) expressed in mouse BA/F3 cells assessed as growth inhibition after 72 hrs by CellTiter-Glo or CCK-8 assay

[9] = molecular target: Tyrosine-protein kinase Blk (Homo sapiens) (UniProt P51451); conditions: BaF3
Description: Inhibition of TEL-BLK (unknown origin) expressed in mouse BA/F3 cells assessed as growth inhibition after 72 hrs by CellTiter-Glo or CCK-8 assay

[10] = molecular target: Tyrosine-protein kinase HCK (Homo sapiens) (UniProt P08631); conditions: BaF3
Description: Inhibition of TEL-HCK (unknown origin) expressed in mouse BA/F3 cells assessed as growth inhibition after 72 hrs by CellTiter-Glo or CCK-8 assay

BaF3 [11] = conditions: Homo sapiens
Description: Inhibition of BCR/ABL p210-E255K mutant (unknown origin) expressed in mouse BA/F3 cells assessed as growth inhibition after 72 hrs by CellTiter-Glo or CCK-8 assay

BaF3 [12] = conditions: Homo sapiens; remark: listed apart in the source
Description: Inhibition of BCR/ABL p210-F317I mutant (unknown origin) expressed in mouse BA/F3 cells assessed as growth inhibition after 72 hrs by CellTiter-Glo or CCK-8 assay

BaF3 [13] = conditions: Homo sapiens; remark: listed apart in the source
Description: Inhibition of BCR/ABL p210-T315I mutant (unknown origin) expressed in mouse BA/F3 cells assessed as growth inhibition after 72 hrs by CellTiter-Glo or CCK-8 assay

[14] = molecular target: Proto-oncogene tyrosine-protein kinase Src (Homo sapiens, UniProt P12931); conditions: BaF3
Description: Inhibition of TEL-SRC (unknown origin) expressed in mouse BA/F3 cells assessed as growth inhibition after 72 hrs by CellTiter-Glo or CCK-8 assay

[15] = molecular target: Tyrosine-protein kinase Lck (Homo sapiens) (UniProt P06239); conditions: BaF3
Tyrosine-protein kinase Lck (Homo sapiens), sequence (P06239 2-509 limits assumed): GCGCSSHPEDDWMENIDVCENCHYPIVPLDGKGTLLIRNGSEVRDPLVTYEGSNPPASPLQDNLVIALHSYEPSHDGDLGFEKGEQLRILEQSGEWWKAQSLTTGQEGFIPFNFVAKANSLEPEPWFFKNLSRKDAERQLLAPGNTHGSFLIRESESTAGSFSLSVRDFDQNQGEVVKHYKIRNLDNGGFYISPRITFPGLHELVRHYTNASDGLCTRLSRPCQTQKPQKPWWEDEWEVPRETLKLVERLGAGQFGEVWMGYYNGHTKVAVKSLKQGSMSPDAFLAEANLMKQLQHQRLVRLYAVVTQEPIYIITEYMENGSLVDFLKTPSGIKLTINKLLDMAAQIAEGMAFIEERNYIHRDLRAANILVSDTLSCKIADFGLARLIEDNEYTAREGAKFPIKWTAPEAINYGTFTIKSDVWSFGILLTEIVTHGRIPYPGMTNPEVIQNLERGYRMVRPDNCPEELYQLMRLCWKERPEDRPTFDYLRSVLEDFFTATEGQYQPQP
Description: Inhibition of TEL-LCK (unknown origin) expressed in mouse BA/F3 cells assessed as growth inhibition after 72 hrs by CellTiter-Glo or CCK-8 assay

Tyrosine-protein kinase HCK (Homo sapiens), sequence (P08631 2-526 limits assumed): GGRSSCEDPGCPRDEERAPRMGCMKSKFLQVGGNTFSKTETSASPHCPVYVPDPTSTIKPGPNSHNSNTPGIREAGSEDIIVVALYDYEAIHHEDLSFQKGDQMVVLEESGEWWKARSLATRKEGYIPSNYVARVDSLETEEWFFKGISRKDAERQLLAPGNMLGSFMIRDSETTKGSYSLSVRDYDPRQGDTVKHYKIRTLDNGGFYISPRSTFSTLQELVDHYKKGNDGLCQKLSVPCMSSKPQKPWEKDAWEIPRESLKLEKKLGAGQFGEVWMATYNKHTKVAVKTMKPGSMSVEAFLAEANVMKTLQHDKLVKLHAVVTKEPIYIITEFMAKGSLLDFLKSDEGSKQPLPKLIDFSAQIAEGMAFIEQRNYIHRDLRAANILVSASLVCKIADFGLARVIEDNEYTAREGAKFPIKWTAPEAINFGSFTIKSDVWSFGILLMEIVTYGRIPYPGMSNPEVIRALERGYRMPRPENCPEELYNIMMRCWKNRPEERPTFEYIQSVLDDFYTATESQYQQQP
Tyrosine-protein kinase Blk (Homo sapiens), sequence (P51451 2-505 limits assumed): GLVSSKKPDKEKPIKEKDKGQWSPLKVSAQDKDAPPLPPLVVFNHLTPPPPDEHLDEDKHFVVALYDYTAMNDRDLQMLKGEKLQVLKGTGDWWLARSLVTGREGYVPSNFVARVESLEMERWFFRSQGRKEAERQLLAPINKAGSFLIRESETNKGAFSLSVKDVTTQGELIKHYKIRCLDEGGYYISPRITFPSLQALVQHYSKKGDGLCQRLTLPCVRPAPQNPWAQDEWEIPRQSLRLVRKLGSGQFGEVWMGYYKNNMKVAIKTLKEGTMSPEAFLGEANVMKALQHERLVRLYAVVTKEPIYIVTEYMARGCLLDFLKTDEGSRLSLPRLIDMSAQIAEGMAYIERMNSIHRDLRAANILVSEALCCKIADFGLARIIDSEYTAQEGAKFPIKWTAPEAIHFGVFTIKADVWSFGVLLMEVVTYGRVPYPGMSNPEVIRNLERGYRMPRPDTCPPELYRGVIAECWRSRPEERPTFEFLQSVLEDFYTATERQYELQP
Epithelial discoidin domain-containing receptor 1, sequence (Q08345 whole entry, the tested form may be a part): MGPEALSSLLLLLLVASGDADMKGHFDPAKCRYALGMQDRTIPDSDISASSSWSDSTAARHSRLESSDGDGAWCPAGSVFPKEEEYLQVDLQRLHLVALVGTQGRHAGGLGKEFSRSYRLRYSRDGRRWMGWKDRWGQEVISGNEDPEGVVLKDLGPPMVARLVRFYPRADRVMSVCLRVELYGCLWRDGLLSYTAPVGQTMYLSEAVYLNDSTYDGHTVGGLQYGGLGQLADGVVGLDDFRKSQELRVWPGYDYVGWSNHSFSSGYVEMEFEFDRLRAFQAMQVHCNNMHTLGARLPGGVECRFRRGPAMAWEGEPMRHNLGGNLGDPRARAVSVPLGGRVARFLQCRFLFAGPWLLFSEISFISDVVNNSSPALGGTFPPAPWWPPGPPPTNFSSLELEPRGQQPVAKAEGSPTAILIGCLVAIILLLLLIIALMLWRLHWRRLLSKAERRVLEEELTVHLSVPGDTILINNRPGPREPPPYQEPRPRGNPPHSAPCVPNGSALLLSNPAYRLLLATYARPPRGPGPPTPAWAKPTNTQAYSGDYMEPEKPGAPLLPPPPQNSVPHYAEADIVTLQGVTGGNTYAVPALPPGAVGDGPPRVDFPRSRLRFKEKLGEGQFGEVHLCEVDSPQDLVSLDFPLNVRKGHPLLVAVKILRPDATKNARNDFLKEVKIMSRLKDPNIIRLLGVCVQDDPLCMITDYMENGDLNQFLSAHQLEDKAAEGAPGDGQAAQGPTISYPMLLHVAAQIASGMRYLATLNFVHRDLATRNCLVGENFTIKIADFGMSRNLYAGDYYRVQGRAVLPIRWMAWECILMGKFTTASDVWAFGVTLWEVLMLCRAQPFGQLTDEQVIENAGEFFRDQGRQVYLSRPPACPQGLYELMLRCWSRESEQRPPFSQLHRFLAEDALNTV
Proto-oncogene tyrosine-protein kinase Src, sequence (P12931 2-536 limits assumed): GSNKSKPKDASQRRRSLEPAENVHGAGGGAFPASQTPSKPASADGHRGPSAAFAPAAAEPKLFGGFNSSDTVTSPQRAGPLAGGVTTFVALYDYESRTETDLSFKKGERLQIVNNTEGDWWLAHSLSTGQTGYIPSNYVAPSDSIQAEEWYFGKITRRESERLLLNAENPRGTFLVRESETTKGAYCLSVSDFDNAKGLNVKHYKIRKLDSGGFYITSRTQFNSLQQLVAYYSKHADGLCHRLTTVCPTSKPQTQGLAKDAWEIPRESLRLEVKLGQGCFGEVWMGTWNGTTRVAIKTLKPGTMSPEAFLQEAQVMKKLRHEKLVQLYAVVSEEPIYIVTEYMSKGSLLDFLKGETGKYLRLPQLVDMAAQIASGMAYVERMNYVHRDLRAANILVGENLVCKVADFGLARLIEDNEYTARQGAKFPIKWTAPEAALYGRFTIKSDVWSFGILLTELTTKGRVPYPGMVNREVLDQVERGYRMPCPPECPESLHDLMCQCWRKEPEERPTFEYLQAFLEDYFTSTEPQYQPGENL

| GI50 (K562) [nM] | GI50 (MV4-11) [nM] | GI50 [7] [nM] | GI50 [8] [nM] | GI50 [9] [nM] | GI50 [10] [nM] | GI50 (BaF3 [11]) [nM] | GI50 (BaF3 [12]) [nM] | GI50 (BaF3 [13]) [nM] | GI50 [14] [nM] | GI50 [15] [nM] | SMILES | GI50 at 72 h [1] [nM] | GI50 [2] [nM] | GI50 [3] [nM] | GI50 [4] [nM] | GI50 [5] [nM] | GI50 (HEL) [nM] | GI50 at 72 h [6] [nM] |
| --- | --- | --- | --- | --- | --- | --- | --- | --- | --- | --- | --- | --- | --- | --- | --- | --- | --- | --- |
| < 0.3 | 3600 | 3000 | 3000 | 5 | 39 | 17 | 10 | 9940 |  |  | Cc1nc(Nc2ncc(C(=O)Nc3c(C)cccc3Cl)s2)cc(N2CCN(CCO)CC2)n1 [DASATINIB] | > 10000 | < 0.3 | > 10000 | 2300 | < 0.3 | 5300 | 270 |
| 2 | > 10000 |  | 1400 | 1300 | 4100 | 21 | 54.6 | > 10000 | 470 | 870 | Cc1cn(-c2cc(NC(=O)c3ccc(C)c(Nc4nccc(-c5cccnc5)n4)c3)cc(C(F)(F)F)c2)cn1 [NILOTINIB] | 2100 | 1 | > 10000 | > 10000 | 16 | 3900 | 4200 |
| 140 | > 10000 |  | 7700 | 4100 | 9700 | 1930 | 855 | > 10000 |  |  | Cc1ccc(NC(=O)c2ccc(CN3CCN(C)CC3)cc2)cc1Nc1nccc(-c2cccnc2)n1 [IMATINIB] | 6700 | 160 | > 10000 | > 10000 | 240 | 5300 | > 10000 |

From ChEMBL document CHEMBL3779840, “Discovery of 2-((3-Amino-4-methylphenyl)amino)-N-(2-methyl-5-(3-(trifluoromethyl)benzamido)phenyl)-4-(methylamino)pyrimidine-5-carboxamide (CHMFL-ABL-053) as a Potent, Selective, and Orally Available BCR-ABL/SRC/p38 Kinase Inhibitor for Chronic Myeloid Leukemia” (J Med Chem, 2016)
